According to ChEMBL document CHEMBL5512665, “A CARM1 Inhibitor Potently Suppresses Breast Cancer Both In Vitro and In Vivo” (J Med Chem, 2024):
Active and inactive are the calls of the source. The calls are words filed in the database; no cut-off is given here.

What was measured:
[1] = test system: MCF7; test: Antitumor activity against human MCF7 cells xenografted in BALB/C mouse assessed as upregulation of IFNalpha gene expression at 25 mg/kg,ip administrated every other day for 29 days by RT-qPCR analysis; format: functional, organism-based; details: time 29.0 day
[2] = Toxicity in BALB/C mouse xenografted with human MDA-MB-231 cells assessed as change in liver morphology at 25 mg/kg,ip administrated daily for 11 days; format: organism-based; details: in vivo, 264 h, time 11 day
[3] = test system: MCF7; test: Synergistic antitumor activity against human MCF7 cells xenografted in BALB/C mouse assessed as reduction in tumor weight at 25 mg/kg,ip administrated every other day for 15 days in presence of 5 mg/kg tamoxifen oral administration; format: functional, organism-based; details: time 15.0 day
[4] = test system: 4T1; test: Antitumor activity against mouse 4T1 cells implanted in BALB/C mouse assessed as downregulation of FOXC1 gene expression at 25 mg/kg,ip administrated daily for 14 days by RT-qPCR analysis; format: functional, organism-based; details: time 14.0 day
[5] = test system: 4T1; test: Antitumor activity against mouse 4T1 cells implanted in BALB/C mouse assessed as downregulation of PGR gene expression at 25 mg/kg,ip administrated daily for 14 days by RT-qPCR analysis; format: functional, organism-based; details: time 14.0 day
[6] = test system: MCF7; test: Potentiation of etoposide induced antiproliferative activity against human MCF7 cells assessed as upregulation of IFIT1 gene expression at 2.5 uM in presence of etoposide by RT-qPCR analysis; format: functional, cell-based
[7] = Toxicity in BALB/C mouse xenografted with human MDA-MB-231 cells assessed as change in lung morphology at 50 mg/kg,ip administrated daily for 11 days; format: organism-based; details: in vivo, 264 h, time 11 day
[8] = test system: BT-474; test: Antiproliferative activity against human BT-474 cells assessed as reduction in cell growth incubated for 7 days by celltiter 96 aqueous one solution cell proliferation assay; details: BT-474, 168 h
[9] = test system: MCF7; test: Synergistic antiproliferative activity against human MCF7 cells assessed as downregulation of GREB1 gene expression at 2.5 uM incubated for 6 hrs in presence of fulvestrant by RT-qPCR analysis; format: functional, cell-based
[10] = test system: MCF7; test: Antitumor activity against human MCF7 cells xenografted in BALB/C mouse assessed as reduction of tumor size at 25 mg/kg,ip administrated every other day for 29 days; format: functional, organism-based; details: time 29.0 day
[11] = Toxicity in BALB/C mouse xenografted with human MDA-MB-231 cells assessed as change in heart morphology at 50 mg/kg,ip administrated daily for 11 days; format: organism-based; details: in vivo, 264 h, time 11 day
[12] = test system: 4T1; test: Antitumor activity against mouse 4T1 cells implanted in BALB/C mouse assessed as downregulation of C-Myc gene expression at 25 mg/kg,ip administrated daily for 14 days by RT-qPCR analysis; format: functional, organism-based; details: time 14.0 day
[13] = test system: 4T1; test: Antitumor activity against mouse 4T1 cells implanted in BALB/C mouse assessed as upregulation of CCL5 gene expression at 25 mg/kg,ip administrated daily for 14 days by RT-qPCR analysis; format: functional, organism-based; details: time 14.0 day
[14] = test system: 4T1; test: Potentiation of etoposide induced antitumor activity against mouse 4T1 cells implanted in BALB/C mouse assessed as upregulation of CD8A expression at 25 mg/kg,ip administrated daily for 12 days in presence of 8 mg/kg etoposide administration by immunohistochemical staining based analysis; format: functional, organism-based; details: time 12.0 day
[15] = test system: 4T1; test: Potentiation of etoposide induced antiproliferative activity against mouse 4T1 cells assessed as upregulation of ISG15 gene expression at 2.5 uM in presence of etoposide by RT-qPCR analysis; format: functional, cell-based
[16] = test system: 4T1; test: Antitumor activity against mouse 4T1 cells implanted in BALB/C mouse assessed as upregulation of IFIT1 gene expression at 50 mg/kg,ip administrated daily for 14 days by RT-qPCR analysis; format: functional, organism-based; details: time 14.0 day
[17] = Toxicity in BALB/C mouse implanted with mouse 4T1 cells assessed as change in body weight at 25 mg/kg,ip administrated daily for 14 days; format: organism-based; details: in vivo, 336 h, time 14 day
[18] = test system: MCF7; test: Antitumor activity against human MCF7 cells xenografted in BALB/C mouse assessed as downregulation of CCND1 gene expression at 50 mg/kg,ip administrated every other day for 29 days by RT-qPCR analysis; format: functional, organism-based; details: time 29.0 day
[19] = Toxicity in BALB/C mouse xenografted with human MCF7 cells assessed as change in body weight at 25 mg/kg,ip administrated every other day for 15 days in presence of 5 mg/kg tamoxifen oral administration; format: organism-based; details: in vivo, 360 h, time 15 day
[20] = test system: MCF7; test: Antiproliferative activity against human MCF7 cells with siRNA mediated CARM1 knockdown assessed as reduction in cell growth at 5 uM incubated for 7 days by celltiter 96 aqueous one solution cell proliferation assay; format: functional, cell-based; details: time 7.0 day
[21] = test system: MCF7; test: Synergistic antitumor activity against human MCF7 cells xenografted in BALB/C mouse assessed as downregulation of GREB1 gene expression at 25 mg/kg,ip administrated every other day for 15 days in presence of 5 mg/kg tamoxifen oral administration by RT-qPCR analysis; format: functional, organism-based; details: time 15.0 day
[22] = test system: 4T1; test: Antitumor activity against mouse 4T1 cells implanted in BALB/C mouse assessed as downregulation of NRIP1 gene expression at 50 mg/kg,ip administrated daily for 14 days by RT-qPCR analysis; format: functional, organism-based; details: time 14.0 day
[23] = test system: MCF7; test: Antitumor activity against human MCF7 cells xenografted in BALB/C mouse assessed as reduction of tumor size at 50 mg/kg,ip administrated every other day for 29 days; format: functional, organism-based; details: time 29.0 day
[24] = test system: MCF7; test: Antitumor activity against human MCF7 cells xenografted in BALB/C mouse assessed as downregulation of GREB1 gene expression at 25 mg/kg,ip administrated every other day for 29 days by RT-qPCR analysis; format: functional, organism-based; details: time 29.0 day
[25] = test system: MCF7; test: Synergistic antitumor activity against human MCF7 cells xenografted in BALB/C mouse assessed as downregulation of TFF1 gene expression at 25 mg/kg,ip administrated every other day for 15 days in presence of 5 mg/kg tamoxifen oral administration by RT-qPCR analysis; format: functional, organism-based; details: time 15.0 day
[26] = test system: 4T1; test: Antitumor activity against mouse 4T1 cells implanted in BALB/C mouse assessed as downregulation of N-Myc gene expression at 25 mg/kg,ip administrated daily for 14 days by RT-qPCR analysis; format: functional, organism-based; details: time 14.0 day
[27] = Toxicity in BALB/C mouse implanted with mouse 4T1 cells assessed as change in spleen morphology at 25 mg/kg,ip administrated daily for 14 days; format: organism-based; details: in vivo, 336 h, time 14 day
[28] = test system: MCF7; test: Potentiation of etoposide induced antiproliferative activity against human MCF7 cells assessed as inhibition of colony formation at 2.5 uM incubated for 10 days in presence of etoposide by crystal violet staining based analysis; format: functional, cell-based; details: time 10.0 day
[29] = Toxicity in BALB/C mouse xenografted with human MDA-MB-231 cells assessed as change in kidney morphology at 50 mg/kg,ip administrated daily for 11 days; format: organism-based; details: in vivo, 264 h, time 11 day
[30] = test system: MCF7; test: Antitumor activity against human MCF7 cells xenografted in BALB/C mouse assessed as upregulation of CCL5 gene expression at 25 mg/kg,ip administrated every other day for 29 days by RT-qPCR analysis; format: functional, organism-based; details: time 29.0 day
[31] = test system: MCF7; test: Antitumor activity against human MCF7 cells xenografted in BALB/C mouse assessed as upregulation of ISG15 gene expression at 25 mg/kg,ip administrated every other day for 29 days by RT-qPCR analysis; format: functional, organism-based; details: time 29.0 day
[32] = test system: 4T1; test: Antitumor activity against mouse 4T1 cells implanted in BALB/C mouse assessed as downregulation of GREB1 gene expression at 25 mg/kg,ip administrated daily for 14 days by RT-qPCR analysis; format: functional, organism-based; details: time 14.0 day

For `Cc1ccc(-c2nc(N3CCN(CCN(C)C)CC3)ncc2-c2ccoc2)cc1.Cl.Cl`, the Activity [1] was “Active”, the Activity [2] was “Non-Toxic” and the Activity [3] was “Active”. The Activity [4] was “Active”, the Activity [5] was “Active” and the Activity [6] was “Active”. The Activity [7] was “Non-Toxic”, the EC50 [8] was 2130 nM and the Activity [9] was “Active”. For the same compound, the Activity [10] was “Active”, the Activity [11] was “Non-Toxic” and the Activity [12] was “Active”. For the same compound, the Activity [13] was “Active”, the Activity [14] was “Active” and the Activity [15] was “Active”. The Activity [16] was “Active”, the Activity [17] was “Non-Toxic” and the Activity [18] was “Active”. For the same compound, the Activity [19] was “Non-Toxic”, the Activity [20] was “inactive” and the Activity [21] was “Active”. The Activity [22] was “Active”, the Activity [23] was “Active” and the Activity [24] was “Active”. For the same compound, the Activity [25] was “Active”, the Activity [26] was “Active” and the Activity [27] was “Non-Toxic”. For the same compound, the Activity [28] was “Active”, the Activity [29] was “Non-Toxic” and the Activity [30] was “Active”. For the same compound, the Activity [31] was “Active” and the Activity [32] was “Active”.
